Assay results as given in publication PMC6104608, “Design, synthesis, and evaluation of curcumin analogues as potential inhibitors of bacterial sialidase” (Journal of Enzyme Inhibition and Medicinal Chemistry, 2018).

Key:
S. pneumoniae Nan A [1] = target: T1, S. pneumoniae Nan A (Streptococcus pneumoniae, UniProt P62575); test: Fluorescence-based inhibition assay of S. pneumoniae Nan A with MUNANA substrate; type: biochemical; conditions: for IC50: 2.2 nM Nan A, 50 µM substrate, pH 7.5, triplicate, read-out: IC50 against S. pneumoniae Nan A
T1 construct: 6x His-tag (C); made in house; host or cells: E. coli BL21 (DE3)
T1 sequence (P62575 319-822 limits assumed): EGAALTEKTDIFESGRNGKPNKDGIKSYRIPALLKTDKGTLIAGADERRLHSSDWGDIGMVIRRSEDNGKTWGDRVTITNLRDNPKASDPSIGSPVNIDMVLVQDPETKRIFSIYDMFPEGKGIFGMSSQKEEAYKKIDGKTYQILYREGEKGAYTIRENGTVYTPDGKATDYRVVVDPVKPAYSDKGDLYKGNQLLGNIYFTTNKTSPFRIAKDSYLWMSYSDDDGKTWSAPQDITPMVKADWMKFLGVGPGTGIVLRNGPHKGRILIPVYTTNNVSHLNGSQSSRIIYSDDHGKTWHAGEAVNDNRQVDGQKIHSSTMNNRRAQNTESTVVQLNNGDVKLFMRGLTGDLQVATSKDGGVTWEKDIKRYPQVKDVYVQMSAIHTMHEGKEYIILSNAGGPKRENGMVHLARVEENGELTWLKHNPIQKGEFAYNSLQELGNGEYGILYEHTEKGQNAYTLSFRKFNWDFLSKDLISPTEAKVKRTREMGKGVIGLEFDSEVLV

[2] = target: T2, Vibrio cholerae sialidase (Vibrio cholerae serotype O1, UniProt P0C6E9); test: biochemical
T2 construct: purchased Sigma 72197
T2 sequence (P0C6E9 25-781): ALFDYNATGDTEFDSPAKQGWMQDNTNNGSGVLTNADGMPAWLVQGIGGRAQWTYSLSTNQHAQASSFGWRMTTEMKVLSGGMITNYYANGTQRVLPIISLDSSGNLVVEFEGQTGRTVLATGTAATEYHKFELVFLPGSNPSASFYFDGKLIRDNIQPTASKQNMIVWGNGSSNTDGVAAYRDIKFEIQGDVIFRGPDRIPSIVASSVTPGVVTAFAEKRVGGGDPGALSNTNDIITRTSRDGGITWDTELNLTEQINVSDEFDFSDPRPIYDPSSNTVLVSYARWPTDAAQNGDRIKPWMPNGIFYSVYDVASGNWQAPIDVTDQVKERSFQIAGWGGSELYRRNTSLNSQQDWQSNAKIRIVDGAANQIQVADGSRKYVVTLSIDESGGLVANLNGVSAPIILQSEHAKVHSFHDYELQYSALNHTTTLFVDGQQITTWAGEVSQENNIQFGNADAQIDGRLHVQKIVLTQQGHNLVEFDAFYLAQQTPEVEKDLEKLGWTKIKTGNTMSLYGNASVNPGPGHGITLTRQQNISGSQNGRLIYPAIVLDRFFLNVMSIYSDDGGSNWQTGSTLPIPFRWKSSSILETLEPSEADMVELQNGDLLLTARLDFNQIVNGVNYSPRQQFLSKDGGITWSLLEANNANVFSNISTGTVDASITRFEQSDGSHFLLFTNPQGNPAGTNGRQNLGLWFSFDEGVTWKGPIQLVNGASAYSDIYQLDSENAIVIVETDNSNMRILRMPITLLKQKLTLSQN

S. pneumoniae Nan A [3] = target: T1, S. pneumoniae Nan A; test: Enzyme kinetic study (inhibition mechanism and Ki) on Nan A; type: biochemical; conditions: for Inhibition type against Nan A: Lineweaver-Burk and Dixon plots; for Ki: nonlinear regression, SigmaPlot Enzyme Kinetics, read-out: Ki against Nan A

COc1cc(/C=C/C(=O)/C=C(O)/C=C/c2ccc(C(F)(F)F)cc2)ccc1O [Compound 5k, 5-Hydroxy-7-(4-hydroxy-3-methoxyphenyl)-1-(4-(trifluoromethyl)phenyl)hepta-1,4,6-trien-3-one]
IC50 (S. pneumoniae Nan A [1]): 1000 ± 100 nM | melting point: 158 to 160 °C

COc1ccc(/C=C/C(O)=C/C(=O)/C=C/c2ccc(O)c(OC)c2)cc1O [Compound 5c, 5-Hydroxy-7-(4-hydroxy-3-methoxyphenyl)-1-(3-hydroxy-4-methoxyphenyl)hepta-1,4,6-trien-3-one]
IC50 [2]: 7700 ± 700 nM | IC50 (S. pneumoniae Nan A [1]): 1000 ± 400 nM | melting point: 137 to 140 °C

COc1cc(C=CC(O)=C2CCCC(=Cc3ccc(O)c(OC)c3)C2=O)ccc1O [Compound 4f, 2–(1-Hydroxy-3-(4-hydroxy-3-methoxyphenyl)allylidene)-6-(4-hydroxy-3-methoxybenzylidene)cyclohexan-1-one]
IC50 [2]: 24900 ± 1800 nM | IC50 (S. pneumoniae Nan A [1]): 4700 ± 500 nM | melting point: 182 to 183 °C

COc1ccc(/C=C/C(=O)/C=C(O)/C=C/c2ccc(O)c(O)c2)cc1O [Compound 5e, 1-(3,4-Dihydroxyphenyl)-5-hydroxy-7-(3-hydroxy-4-methoxyphenyl)hepta-1,4,6-trien-3-one]
Inhibition type against Nan A (S. pneumoniae Nan A [3]): competitive inhibition | Ki (S. pneumoniae Nan A [3]): 140 nM | IC50 [2]: 4800 ± 1500 nM | IC50 (S. pneumoniae Nan A [1]): 200 ± 100 nM | fold improvement in Nan A inhibitory activity over curcumin (S. pneumoniae Nan A [1]; IC50 ratio versus curcumin (4a)): 3.0 fold | melting point: 203 to 204 °C

COc1cc(/C=C/C(=O)/C=C(O)/C=C/c2ccc(NC(C)=O)cc2)ccc1O [Compound 5n, N-(4–(5-Hydroxy-7–(4-hydroxy-3-methoxyphenyl)-3-oxohepta-1,4,6-trien-1-yl)phenyl)acetamide]
IC50 [2]: 6800 ± 800 nM | IC50 (S. pneumoniae Nan A [1]): 1800 ± 400 nM | melting point: 183 to 185 °C

COc1cc(/C=C/C(=O)/C=C(O)/C=C/c2ccc(F)cc2)ccc1O [Compound 5l, 1-(4-Fluorophenyl)-5-hydroxy-7-(4-hydroxy-3-methoxyphenyl)hepta-1,4,6-trien-3-one]
IC50 (S. pneumoniae Nan A [1]): 1800 ± 200 nM | melting point: 146 to 147 °C

COc1cc(/C=C/C(=O)/C=C(O)/C=C/c2ccc(O)c(O)c2)ccc1O [Compound 5d, 1-(3,4-Dihydroxyphenyl)-5-hydroxy-7-(4-hydroxy-3-methoxyphenyl)hepta-1,4,6-trien-3-one]
IC50 [2]: 2700 ± 800 nM | IC50 (S. pneumoniae Nan A [1]): 700 ± 200 nM

COc1cc(/C=C/C(=O)/C=C(O)/C=C/c2ccccc2)ccc1O [Compound 5h, 5-Hydroxy-7-(4-hydroxy-3-methoxyphenyl)-1-phenylhepta-1,4,6-trien-3-one]
IC50 (S. pneumoniae Nan A [1]): 7100 ± 100 nM | melting point: 135 to 137 °C

COc1cc(/C=C/C(=O)/C=C(O)/C=C/c2ccc([N+](=O)[O-])cc2)ccc1O [Compound 5j, 5-Hydroxy-7-(4-hydroxy-3-methoxyphenyl)-1-(4-nitrophenyl)hepta-1,4,6-trien-3-one]
IC50 [2]: 6900 ± 1800 nM | IC50 (S. pneumoniae Nan A [1]): 900 ± 300 nM | melting point: 204 to 205 °C

COc1cc(CCC(=O)/C=C(\O)CCc2ccc(O)c(OC)c2)ccc1O [Compound 6, 1,7-Bis(4-hydroxy-3-methoxyphenyl)heptane-3,5-dione]
IC50 (S. pneumoniae Nan A [1]): 82100 ± 7600 nM

COc1ccc(/C=C/C(O)=C/C(=O)/C=C/c2ccc(OC)c(OC)c2)cc1O [Compound 5b, 7-(3,4-Dimethoxyphenyl)-5-hydroxy-1-(3-hydroxy-4-methoxyphenyl)hepta-1,4,6-trien-3-one]
IC50 [2]: 9200 ± 200 nM | IC50 (S. pneumoniae Nan A [1]): 600 ± 100 nM | melting point: 155 to 158 °C

COc1cc(/C=C/C(=O)/C=C(O)/C=C/c2ccc(O)cc2)ccc1O [Compound 5p, 5-Hydroxy-7-(4-hydroxy-3-methoxyphenyl)-1-(4-hydroxyphenyl)hepta-1,4,6-trien-3-one]
IC50 [2]: 4300 ± 700 nM | IC50 (S. pneumoniae Nan A [1]): 600 ± 200 nM

COc1cc(/C=C/C(=O)/C=C(O)/C=C/c2ccc(Br)cc2)ccc1O [Compound 5m, 1-(4-Bromophenyl)-5-hydroxy-7-(4-hydroxy-3-methoxyphenyl)hepta-1,4,6-trien-3-one]
IC50 (S. pneumoniae Nan A [1]): 1000 ± 200 nM | melting point: 148 to 149 °C

COc1ccc(/C=C/C(=O)/C=C(O)/C=C/c2ccc(OC)c(OC)c2)cc1OC [Compound 4c, 1,7-Bis(3,4-dimethoxyphenyl)-5-hydroxyhepta-1,4,6-trien-3-one]
IC50 [2]: 21500 ± 7000 nM | IC50 (S. pneumoniae Nan A [1]): 3400 ± 1000 nM

O=C(C=Cc1ccc(O)c(O)c1)C=C(O)C=Cc1ccc(O)c(O)c1 [Compound 4d, 1,7-bis(3,4-dihydroxyphenyl)-5-hydroxyhepta-1,4,6-trien-3-one]
IC50 [2]: 11900 ± 2000 nM | IC50 (S. pneumoniae Nan A [1]): 1500 ± 700 nM | melting point: 300 °C (dec.)

COc1cc(/C=C/C(=O)/C=C(O)/C=C/c2ccc(N(C)C)cc2)ccc1O [Compound 5r, 1-(4-(Dimethylamino)phenyl)-5-hydroxy-7-(4-hydroxy-3-methoxyphenyl)hepta-1,4,6-trien-3-one]
IC50 [2]: 1900 ± 200 nM | IC50 (S. pneumoniae Nan A [1]): 1500 ± 200 nM

O=C(C=Cc1ccc(O)cc1)C=C(O)C=Cc1ccc(O)cc1 [Compound 4e, 5-Hydroxy-1,7-bis(4-hydroxyphenyl)hepta-1,4,6-trien-3-one]
Inhibition type against Nan A (S. pneumoniae Nan A [3]): noncompetitive inhibition | Ki (S. pneumoniae Nan A [3]): 1200 nM | IC50 [2]: 15100 ± 100 nM | IC50 (S. pneumoniae Nan A [1]): 4000 ± 1200 nM

COc1cc(/C=C/C(=O)/C=C(O)/C=C/c2ccc(O)c(OC)c2)ccc1O [Compound 4a, curcumin]
Inhibition type against Nan A (S. pneumoniae Nan A [3]): noncompetitive inhibition | Ki (S. pneumoniae Nan A [3]): 1300 nM | IC50 [2]: 5300 ± 700 nM | IC50 (S. pneumoniae Nan A [1]): 600 ± 100 nM

COc1cc(/C=C/C(=O)/C=C(O)/C=C/c2ccc(OC(C)=O)c(OC)c2)ccc1OC(C)=O [Compound 7, 3-Hydroxy-5-oxohepta-1,3,6-triene-1,7-diyl)bis(2-methoxy-4,1-phenylene) diacetate]
IC50 [2]: 37500 ± 3500 nM | IC50 (S. pneumoniae Nan A [1]): 2600 ± 600 nM

COc1cc(C=Cc2cc(C=Cc3ccc(O)c(OC)c3)[nH]n2)ccc1O [Compound 8]
IC50 [2]: 41600 ± 18700 nM | IC50 (S. pneumoniae Nan A [1]): 6200 ± 1500 nM

COc1cc(/C=C/C(=O)/C=C(O)/C=C/c2ccc(N3CCCCC3)cc2)ccc1O [Compound 5s, 5-Hydroxy-7-(4-hydroxy-3-methoxyphenyl)-1-(4-(piperidin-1-yl)phenyl)hepta-1,4,6-trien-3-one]
IC50 (S. pneumoniae Nan A [1]): 1500 ± 100 nM | melting point: 204 to 205 °C

COC(=O)CCCOc1ccc(C=CC(=O)C=C(O)C=Cc2ccc(O)c(OC)c2)cc1OC [Compound 5i, Methyl 4-(4-(5-hydroxy-7–(4-hydroxy-3-methoxyphenyl)-3-oxohepta-1,4,6-trien-1-yl)-2-methoxyphenoxy)-butanoate]
IC50 [2]: 9500 ± 1500 nM | IC50 (S. pneumoniae Nan A [1]): 1000 ± 500 nM | melting point: 100 to 101 °C

COc1ccc(/C=C/C(O)=C/C(=O)/C=C/c2ccc(O)c(OC)c2)cc1 [Compound 5o, 5-Hydroxy-7-(4-hydroxy-3-methoxyphenyl)-1-(4-methoxyphenyl)hepta-1,4,6-trien-3-one]
IC50 [2]: 4200 ± 800 nM | IC50 (S. pneumoniae Nan A [1]): 1200 ± 100 nM | melting point: 143 to 145 °C

COc1cc(/C=C/C(=O)/C=C(O)/C=C/c2ccc(N)cc2)ccc1O [Compound 5q, 1-(4-Aminophenyl)-5-hydroxy-7-(4-hydroxy-3-methoxyphenyl)hepta-1,4,6-trien-3-one]
Inhibition type against Nan A (S. pneumoniae Nan A [3]): noncompetitive inhibition | Ki (S. pneumoniae Nan A [3]): 800 nM | IC50 [2]: 2900 ± 900 nM | IC50 (S. pneumoniae Nan A [1]): 1600 ± 100 nM | melting point: 99 to 100 °C

COc1ccc(C=CC(=O)C=C(O)C=Cc2ccc(OC)c(O)c2)cc1O [Compound 4b, 5-Hydroxy-1,7-bis(3-hydroxy-4-methoxyphenyl)hepta-1,4,6-trien-3-one]
IC50 [2]: 7600 ± 500 nM | IC50 (S. pneumoniae Nan A [1]): 1000 ± 400 nM | melting point: 182 to 183 °C

COc1cc(/C=C/C(O)=C/C(=O)/C=C/c2ccc(OC)c(OC)c2)ccc1O [Compound 5a, 7-(3,4-Dimethoxyphenyl)-5-hydroxy-1-(4-hydroxy-3-methoxyphenyl)hepta-1,4,6-trien-3-one]
IC50 [2]: 11700 ± 200 nM | IC50 (S. pneumoniae Nan A [1]): 1500 ± 700 nM

CCOc1cc(/C=C/C(O)=C/C(=O)/C=C/c2ccc(O)c(OC)c2)ccc1O [Compound 5f, 1-(3-Ethoxy-4-hydroxyphenyl)-5-hydroxy-7-(4-hydroxy-3-methoxyphenyl)hepta-1,4,6-trien-3-one]
IC50 [2]: 6700 ± 600 nM | IC50 (S. pneumoniae Nan A [1]): 1500 ± 800 nM | melting point: 182 to 183 °C

COc1cc(C=CC(O)=CC(=O)C=Cc2cccnc2)ccc1O [Compound 5g, 5-Hydroxy-7-(4-hydroxy-3-methoxyphenyl)-1-(pyridin-3-yl)hepta-1,4,6-trien-3-one]
IC50 [2]: 43600 ± 100 nM | IC50 (S. pneumoniae Nan A [1]): 4400 ± 100 nM | melting point: 185 °C (dec.)
